What all share (test): DTP human tumour cell line panel, 48 h
For test [1], the system named is NCI-H226 lung.
In test [2] the test system is RXF 393 renal.
Test [3] relates to SF-539 CNS.
Test [4] concerns HOP-62 NSCLC.
In test [5] the test system is SNB-19 CNS.
Test [6] has as its system SN12C renal.
The subject of test [7] is MOLT-4 leukemia.
Test [8] has as its system M14 melanoma.
The test system of test [9] is HOP-92 NSCLC.
Test [10] has as its system LOX IMVI melanoma.

This is an account of results in PubChem BioAssay (NCI).

A word on the TGI: it is the concentration giving total growth inhibition. Lower therefore signals greater sensitivity of the cells. The term GI50 denotes the concentration at which growth is held to half of that of the control.

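In this assay, cells in 96-well plates receive the compound at five concentrations for 48 hours. Endpoints are linearly interpolated between the surrounding concentrations. At the GI50, growth is halved. TGI: concentration producing complete growth inhibition.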

With `COC(OC)c1cc2c(cc1C(=O)[C@@]13CCC[C@@H]1NC(=O)O3)OCO2`, the concentration for total growth inhibition (TGI) in test [1], in test [2], in [3], in test [4], in test [5] and in test [6] was above 100 µM each time. Also, the TGI in test [7], in test [8] and in test [9] was above 100 µM each time.

On to `C/C(CC(=O)N(C(C)C)C(C)C)=N\NC(=O)c1ccncc1`, for which the TGI in test [1], in test [10], in [2], in test [3], in test [5] and in [6] was above 100 µM in each case. The TGI in test [7], in test [8] and in test [9] was above 100 µM throughout.

For `CC(=O)N(Cc1ccccc1)c1ccccc1I(=O)=O`, the GI50 was above 100 µM in test [1]; 17.5 µM in test [10]; above 100 µM in test [2]; above 100 µM in test [3]; 82.2 µM in test [5]; above 100 µM in test [6]. In addition, the results for the GI50 in [7] and in [9] were 12.7 µM and 13.3 µM, respectively. Further, the TGI in [1] is above 100 µM; in test [10], 35.6 µM; in [2], above 100 µM; in test [3] it was above 100 µM; in test [5], above 100 µM; in test [6], above 100 µM. Besides, the TGI in test [7] turned out to be 42.9 µM; in test [9] it was 67.5 µM.

For `CN1CCc2c1nc(-c1ccc([N+](=O)[O-])cc1)c1c2N(C)CC1`, the TGI in test [10], in [2], in test [3], in [4], in [5] and in test [6] was above 100 µM in each case. For the same compound, the total growth inhibition concentration (TGI) in [7], in [8] and in [9] was above 100 µM each time.

As to `Cc1ccc(NC(=O)CC(=O)N2N=C(N(CCC#N)c3cccc(C)c3)CC2c2ccccc2)cc1` (stereo unspecified), the TGI in test [1], in test [2], in [3], in test [4], in test [5] and in test [6] was above 100 µM throughout. In addition, the TGI in test [7], in test [8] and in [9] was above 100 µM each time.

For `CO[C@@]12[C@@H]3NC3CN1C1=C(C(=O)C(N)=C(C)C1=O)[C@@H]2COC(N)=O` (stereo partly specified), the GI50 was 0.504 µM in test [1], 1.27 µM in test [2], 0.278 µM in [7] and 1.44 µM in test [9]. Moreover, the TGI in test [1] was 2.78 µM; in test [10] it was 2.06 µM; in [2], 4.16 µM; in [4] it was 8.21 µM; in test [6], above 40.9 µM; in test [8], 1.82 µM. For the same compound, the TGI in test [9] was 5.73 µM.

For the compound `COc1cccc(C2NC(=S)NC(C)=C2C(=O)Nc2ccc(Cl)c(Cl)c2)c1` (stereo unspecified), the GI50 is 12.1 µM in [1]; 7.93 µM in test [10]; 9.14 µM in test [2]; 11.6 µM in [4]; 15.6 µM in test [5]; 9.14 µM in [6]. Further, the GI50 is above 50 µM in [7], 10.3 µM in [8] and 12.5 µM in test [9]. In addition, the TGI in test [1] is 30.7 µM; in test [10], 15.1 µM; in test [2], 22.3 µM; in test [4] it was 20.3 µM; in test [5], above 50 µM; in [6] it was 17.1 µM. In addition, the TGI in test [7] was above 50 µM; in [8], 19.3 µM; in test [9] it was 38.7 µM.

As for `O=C(c1ccc(Cl)cc1)C1OC12C(=O)Nc1ccccc12` (stereo unspecified), the TGI was 40.7 µM in test [1]; 4.67 µM in test [10]; 29.6 µM in test [2]; 30.6 µM in [3]; above 73.3 µM in test [4]; 86.7 µM in test [5]. Also, the TGI in test [6] came to 19.3 µM; in test [8], 19 µM; in test [9] it was 30 µM.

With `CCOc1cc(-c2ccc[nH]2)[nH]c1/C=C1\N=C(C)C(C(=O)OC)=C1C`, the GI50 in test [1] is 0.0185 µM; in [10] it was 0.0102 µM; in test [2] it was 0.0219 µM; in test [3], 0.059 µM; in test [4], 0.0361 µM; in [5], 0.239 µM. Further, the GI50 in test [6] was 0.0444 µM; in [8], 0.0348 µM; in test [9], 0.0148 µM. Besides, the TGI was determined as 0.044 µM in test [1]; 0.0381 µM in test [10]; 0.0881 µM in [2]; 0.968 µM in test [3]; 0.294 µM in test [4]; 2.91 µM in test [5]. For the same compound, the results for the TGI in [6], in test [8] and in test [9] were 1.72 µM, 1.18 µM and 0.049 µM, respectively.

For `Cc1nc(N)nc2ccccc12`, the TGI in [10], in test [2], in test [3], in test [4], in test [5] and in [6] was above 100 µM each time. Further, the TGI in test [7], in [8] and in test [9] was above 100 µM throughout.

Consider `N#CC1C=Cc2ccccc2N1C(=O)Oc1ccccc1` (stereo unspecified), for which the TGI in [1], in test [10], in test [2], in test [3], in [5] and in test [6] was above 100 µM each time. For the same compound, the TGI was 93.8 µM in test [7], above 100 µM in [8] and above 100 µM in [9].

Turning to `CC1OC(OC2CCC3(C=O)C4CCC5(C)C(C6=CC(=O)OC6)CCC5(O)C4CCC3(O)C2)C(O)C(O)C1O` (stereo unspecified), the TGI in test [1] worked out at 0.000111 µM; in test [10] it was 6.73e-05 µM; in test [2], 8.12e-05 µM; in test [3] it was 5.65e-05 µM; in test [4], 3.85e-05 µM; in test [5] it was 0.0657 µM. Also, the TGI in test [6] stood at 3.74e-05 µM; in [7], 1.6e-05 µM; in test [9], 0.000102 µM.

Take `CCCCCCCCCCCCCc1nn[nH]n1`: the TGI is 45.5 µM in test [1]; 35.4 µM in test [10]; 43.4 µM in test [2]; 32.2 µM in test [3]; 32.8 µM in [4]; 33 µM in test [5]. For the same compound, the TGI came to 35.9 µM in [6], 31.5 µM in test [8] and 29.3 µM in test [9].

As to `O=c1c2ccccc2oc2ccc(OCCCCCCN3CCCCCC3)cc12`, the GI50 in test [1] was 4.29 µM; in test [10], 1.85 µM; in [2] it was 2.17 µM; in test [3], 1.76 µM; in [5], 4.12 µM; in test [6] it was 4.07 µM. Besides, the values for the GI50 in [7], in [8] and in test [9] were 2.38 µM, 1.88 µM and 4.29 µM, respectively. In addition, the TGI turned out to be 20.2 µM in test [1]; 3.54 µM in [10]; 5.6 µM in test [2]; 3.4 µM in test [3]; 14.4 µM in test [5]; 16.2 µM in [6]. The TGI in [7] turned out to be 6.29 µM; in test [8] it was 3.69 µM; in test [9] it was 20.7 µM.

As to `CCCCCCCCCCCCCCCCOC(=O)c1cc(O)cc(C(=O)OCCCCCCCCCCCCCCCC)c1`, the TGI in test [1], in test [10], in [2], in test [5], in test [6] and in [7] was above 100 µM throughout. The TGI in test [8] and in test [9] was above 100 µM in each case.

Take `C[N+](C)(C)CC1CCCC(C[N+](C)(C)C)C1O` (stereo unspecified): the TGI in test [1], in test [10], in test [2], in [3], in [4] and in [6] was above 100 µM throughout. Also, the TGI in [7], in test [8] and in test [9] was above 100 µM each time.

With `CCC1CNC(=O)CC1CC(=O)OC` (stereo unspecified), the TGI in test [1], in test [10], in test [2], in test [4], in test [5] and in test [6] was above 100 µM each time. For the same compound, the TGI in test [7], in test [8] and in test [9] was above 100 µM throughout.

`N=C1C=C(N)C(=O)c2[nH]c(=O)ccc21`: the TGI was 6.04 µM in test [1]; 3.69 µM in test [10]; 3.29 µM in test [2]; 3.73 µM in test [3]; 3.59 µM in test [4]; 3.86 µM in [5]. Besides, the TGI worked out at 3.16 µM in test [6], 28.7 µM in [8] and 3.58 µM in test [9].

For the compound `CCSC(SCC)=C1C(=O)N(c2ccccc2)N=C1C`, the TGI turned out to be 29.9 µM in test [1]; 26.4 µM in test [10]; 5.89 µM in [2]; 53.7 µM in test [4]; 62.8 µM in test [5]; 30 µM in test [6]. Also, the TGI in [7] stood at 23.4 µM; in test [8], 29.7 µM; in test [9] it was 20.1 µM.
